In patent publication US7674810B2, “1,1-dioxo-1H-1Λ6-benzo[d]isothiazol-3-yl)-4-hydroxy-1,5-dihydro-pyrrol-2-one inhibitors of HCV polymerase” (Roche Palo Alto LLC, priority 2006, dated 2010):

| Structure (SMILES) | melting point |
| --- | --- |
| O=S1(=O)N=C(c2nc(Cc3ccc(F)cc3)c3ccccc3c2O)c2cccc(N3CCOCC3)c21 | 259 to 261 °C |
| O=S1(=O)N=C(c2nc(Cc3ccc(F)cc3)c3ccccc3c2O)c2cccc(-c3ccc(F)cc3)c21 | > 275 °C |
| O=S1(=O)N=C(c2nc(Cc3ccc(F)cc3)c3ccccc3c2O)c2cccc(-c3cccc(F)c3)c21 | > 275 °C |
| CS(=O)(=O)Nc1cccc(-c2cccc3c2S(=O)(=O)N=C3c2nc(Cc3ccc(F)cc3)c3ccccc3c2O)c1 | > 275 °C |
| O=S1(=O)N=C(c2nc(NCC3CC3)c3ccccc3c2O)c2ccccc21 | 270 to 272 °C |
| COc1cc(CN2C(=O)C(C3=NS(=O)(=O)c4ccccc43)=C(O)[C@@H]2C(C)(C)C)ccc1F | 92 to 104 °C |
| Cc1cc(CN2C(=O)C(C3=NS(=O)(=O)c4c(CNS(=O)(=O)N5CCC(N)C5)cccc43)=C(O)[C@@H]2C(C)(C)C)ccc1F.O=C(O)C(F)(F)F (stereo partly drawn) | 128 to 134 °C |
| CC(=O)NC1CCN(S(=O)(=O)NCc2cccc3c2S(=O)(=O)N=C3C2=C(O)[C@H](C(C)(C)C)N(Cc3ccc(F)c(C)c3)C2=O)C1 (stereo partly drawn) | 239 to 259 °C |
| CC[C@H](C)[C@H]1C(O)=C(C2=NS(=O)(=O)c3ccccc32)C(=O)N1Cc1ccc(F)cc1 | 155 to 160 °C |
| CC(C)C[C@H]1C(O)=C(C2=NS(=O)(=O)c3ccccc32)C(=O)N1Cc1ccc(F)cc1 | 200 °C (dec.) |
| CC(C)CC1C(O)=C(C2=NS(=O)(=O)c3ccccc32)C(=O)N1Cc1ccc(F)cc1 (stereo not drawn) | 200 °C (dec.) |
| CC(C)(C)[C@H]1C(O)=C(C2=NS(=O)(=O)c3ccccc32)C(=O)N1Cc1ccccc1 | 170 to 179 °C |
| CC(C)(C)[C@H]1C(O)=C(C2=NS(=O)(=O)c3ccccc32)C(=O)N1Cc1ccc(F)c(F)c1 | 80 to 89 °C |
| CC(C)(C)[C@H]1C(O)=C(C2=NS(=O)(=O)c3ccccc32)C(=O)N1Cc1ccc(F)c(C#N)c1 | 105 to 112 °C |
| CC(C)(C)[C@H]1C(O)=C(C2=NS(=O)(=O)c3ccccc32)C(=O)N1Cc1ccc(F)c(C(F)(F)F)c1 | 85 to 91 °C |
| COc1ccc(-c2cccc3c2S(=O)(=O)N=C3C2=C(O)[C@H](C(C)(C)C)N(Cc3ccc(F)cc3)C2=O)cn1 | 185 to 190 °C |
| CC(C)(C)[C@H]1C(O)=C(C2=NS(=O)(=O)c3c2cccc3-c2ccc(=O)[nH]c2)C(=O)N1Cc1ccc(F)cc1 | > 275 °C |

| Structure (SMILES) | melting point |
| --- | --- |
| CC(=O)Nc1cccc(-c2cccc3c2S(=O)(=O)N=C3C2=C(O)[C@H](C(C)(C)C)N(Cc3ccc(F)cc3)C2=O)c1 | 255 to 260 °C |
| CN(C)S(=O)(=O)NCc1cccc2c1S(=O)(=O)N=C2C1=C(O)[C@H](C(C)(C)C)N(Cc2ccc(F)cc2)C1=O | 102 to 115 °C |
| CC(C)(C)[C@H]1C(O)=C(C2=NS(=O)(=O)c3c(CNS(=O)(=O)N4CCCC4)cccc32)C(=O)N1Cc1ccc(F)cc1 | 112 to 125 °C |
| CC(C)(C)[C@H]1C(O)=C(C2=NS(=O)(=O)c3c2cccc3-c2cncnc2)C(=O)N1Cc1ccc(F)cc1 | > 250 °C |
| CC(C)(C)[C@H]1C(O)=C(C2=NS(=O)(=O)c3c2cccc3-c2cccc(=O)[nH]2)C(=O)N1Cc1ccc(F)cc1 | > 250 °C |
| CC(C)(C)[C@H]1C(O)=C(C2=NS(=O)(=O)c3c(NCC(N)=O)cccc32)C(=O)N1Cc1ccc(F)cc1.N | > 250 °C |
| CC(C)(C)[C@H]1C(O)=C(C2=NS(=O)(=O)c3c2ccc2ccccc32)C(=O)N1Cc1ccc(F)cc1 | 205 °C (dec.) |
| CS(=O)(=O)NCc1cccc2c1S(=O)(=O)N=C2C1=C(O)[C@H](C2CCCCC2)N(Cc2ccc(F)cc2)C1=O | 130 to 137 °C |
| Cc1cc(CN2C(=O)C(C3=NS(=O)(=O)c4c(CNS(C)(=O)=O)cccc43)=C(O)C2c2ccc(F)cc2)ccc1F (stereo not drawn) | > 250 °C |
| CNC(=O)NCc1cccc2c1S(=O)(=O)N=C2C1=C(O)[C@H](C(C)(C)C)N(Cc2ccc(F)cc2)C1=O | > 250 °C |
| CC(C)(C)[C@H]1C(O)=C(C2=NS(=O)(=O)c3c(CCS(C)(=O)=O)cccc32)C(=O)N1Cc1ccc(F)cc1 | 127 to 135 °C |
| CC(C)(C)[C@H]1C(O)=C(C2=NS(=O)(=O)c3c(CS(N)(=O)=O)cccc32)C(=O)N1Cc1ccc(F)cc1 | 159 to 173 °C |
| CN(C)S(=O)(=O)N(C)Cc1cccc2c1S(=O)(=O)N=C2C1=C(O)[C@H](C(C)(C)C)N(Cc2ccc(F)cc2)C1=O | 109 to 115 °C |
| Cc1ccc(CN2C(=O)C(C3=NS(=O)(=O)c4ccccc43)=C(O)[C@@H]2C(C)(C)C)cc1 | 93 to 107 °C |
| CC(C)(C)[C@H]1C(O)=C(C2=NS(=O)(=O)c3c(CNS(=O)(=O)N4CCOCC4)cccc32)C(=O)N1Cc1ccc(F)cc1 | 118 to 129 °C |
| CN(Cc1cccc2c1S(=O)(=O)N=C2C1=C(O)[C@H](C(C)(C)C)N(Cc2ccc(F)cc2)C1=O)S(=O)(=O)N1CCNCC1.O=C(O)C(F)(F)F | 113 to 128 °C |

Second part, the compound after the results:

| melting point | Structure (SMILES) |
| --- | --- |
| 228 to 230 °C | Cc1cccc(-c2cccc3c2S(=O)(=O)N=C3c2nc(Cc3ccc(F)cc3)c3ccccc3c2O)c1 |
| > 275 °C | CS(=O)(=O)Nc1ccc2c(c1)S(=O)(=O)N=C2c1nc(Cc2ccc(F)cc2)c2ccccc2c1O |
| > 275 °C | Cc1ccc2c(Cc3ccc(F)cc3)nc(C3=NS(=O)(=O)c4ccccc43)c(O)c2c1 |
| 215 to 217 °C | CN(c1ccc(F)cc1)c1nc(C2=NS(=O)(=O)c3ccccc32)c(O)c2ccccc12 |
| 105 to 123 °C | CC(C)(C)[C@H]1C(O)=C(C2=NS(=O)(=O)c3ccccc32)C(=O)N1Cc1cccs1 |
| 145 to 155 °C | O=C1C(C2=NS(=O)(=O)c3ccccc32)=C(O)[C@H](c2ccccc2)N1Cc1ccc(F)cc1 |
| 149 to 190 °C | CC(C)(C)[C@H]1C(O)=C(C2=NS(=O)(=O)c3ccccc32)C(=O)N1Cc1ccc(=O)[nH]c1 |
| > 275 °C | CC(C)(C)[C@H]1C(O)=C(C2=NS(=O)(=O)c3c2cccc3-c2cccnc2)C(=O)N1Cc1ccc(F)cc1 |
| 205 to 210 °C | CCc1cc(CN2C(=O)C(C3=NS(=O)(=O)c4ccccc43)=C(O)[C@@H]2C(C)(C)C)ccc1F |
| 155 to 160 °C | CC(C)(C)[C@H]1C(O)=C(C2=NS(=O)(=O)c3c(N)cccc32)C(=O)N1Cc1ccc(F)cc1 |
| 137 °C | CN(C)C(=O)COc1cccc2c1S(=O)(=O)N=C2C1=C(O)[C@H](C(C)(C)C)N(Cc2ccc(F)cc2)C1=O |
| 135 to 140 °C | CC(C)(C)[C@H]1C(O)=C(C2=NS(=O)(=O)c3ccccc32)C(=O)N1CCC1CC1 |
| 95 to 110 °C | CC(C)[C@H]1C(O)=C(C2=NS(=O)(=O)c3ccccc32)C(=O)N1Cc1ccc(F)cc1 |
| 148 to 152 °C | CCOC(=O)CNc1cccc2c1S(=O)(=O)N=C2C1=C(O)[C@H](C(C)(C)C)N(Cc2ccc(F)cc2)C1=O |
| > 250 °C | CC(C)(C)[C@H]1C(O)=C(C2=NS(=O)(=O)c3c(CNS(=O)(=O)N4CC[C@H](O)C4)cccc32)C(=O)N1Cc1ccc(F)cc1 |
| 74 to 86 °C | CC(C)(C)[C@H]1C(O)=C(C2=NS(=O)(=O)c3c(CNS(C)(=O)=O)cccc32)C(=O)N1CCC1CCCC1 |
| > 250 °C | Cc1cccc2c1S(=O)(=O)N=C2C1=C(O)[C@H](C(C)(C)C)N(Cc2ccc(F)cc2)C1=O |
| 248 to 260 °C | CC(=O)N1CCN(S(=O)(=O)NCc2cccc3c2S(=O)(=O)N=C3C2=C(O)[C@H](C(C)(C)C)N(Cc3ccc(F)cc3)C2=O)CC1 |
